# Assays:
# Settings in all cases: treatment: drug + dasatinib (fixed dose, not stated); 5 days
# SN12C [1] = test: AUC of dose-response viability curve, drug + dasatinib, normalised to DMSO (arbitrary (AUC of normalised viability)); higher = less growth inhibition
# Description: (§1)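 Primary HTS combination arm: 8 RCC cell lines treated with 8 doses (up to 10 uM) of each library drug plus a fixed dose of dasatinib (dose not stated) for 5 days; viability read by CellTiter-Glo and normalised to DMSO. GI50 was fitted with XLfit, AUC is the area under the dose-response curve, and minimum viability is the lowest fraction of DMSO viability across doses.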
# TK-10 [2] = test: as above
# Description: as §1
# 786-O [3] = test: as above
# Description: as §1
# UO-31 [4] = test: as above
# Description: as §1
# CAKI-1 [5] = test: as above
# Description: as §1
# A498 [6] = test: as above
# Description: as §1
# ACHN [7] = test: as above
# Description: as §1
# 769-P [8] = test: as above
# Description: as §1
# SN12C [9] = test: GI50 of drug in presence of dasatinib; higher = less potent
# Description: as §1
# TK-10 [10] = test: as above
# Description: as §1
# 786-O [11] = test: as above
# Description: as §1
# UO-31 [12] = test: as above
# Description: as §1
# CAKI-1 [13] = test: as above
# Description: as §1
# A498 [14] = test: as above
# Description: as §1
# ACHN [15] = test: as above
# Description: as §1
# SN12C [16] = test: minimum viability across doses, drug + dasatinib, relative to DMSO (fraction); higher = less growth inhibition
# Description: as §1
# TK-10 [17] = test: as above
# Description: as §1
# 786-O [18] = test: as above
# Description: as §1
# UO-31 [19] = test: as above
# Description: as §1
# CAKI-1 [20] = test: as above
# Description: as §1
# A498 [21] = test: as above
# Description: as §1
# ACHN [22] = test: as above
# Description: as §1
# 769-P [23] = test: as above
# Description: as §1
# 769-P [24] = test: GI50 of drug in presence of dasatinib; higher = less potent
# Description: as §1
GI50 of drug (786-O [11]) [µM],GI50 of drug (ACHN [15]) [µM],Structure (SMILES),AUC of dose-response viability curve (SN12C [1]),AUC of dose-response viability curve (TK-10 [2]),AUC of dose-response viability curve (786-O [3]),AUC of dose-response viability curve (UO-31 [4]),AUC of dose-response viability curve (CAKI-1 [5]),AUC of dose-response viability curve (A498 [6]),AUC of dose-response viability curve (ACHN [7]),AUC of dose-response viability curve (769-P [8]),GI50 of drug (SN12C [9]) [µM],GI50 of drug (TK-10 [10]) [µM],GI50 of drug (UO-31 [12]) [µM],GI50 of drug (CAKI-1 [13]) [µM],GI50 of drug (A498 [14]) [µM],minimum viability across doses (SN12C [16]),minimum viability across doses (TK-10 [17]),minimum viability across doses (786-O [18]),minimum viability across doses (UO-31 [19]),minimum viability across doses (CAKI-1 [20]),minimum viability across doses (A498 [21]),minimum viability across doses (ACHN [22]),minimum viability across doses (769-P [23]),GI50 of drug (769-P [24]) [µM]
< 0.003,< 0.003,CO[C@H]1C[C@@H]2CC[C@@H](C)[C@@](O)(O2)C(=O)C(=O)N2CCCC[C@H]2C(=O)O[C@H]([C@H](C)C[C@@H]2CC[C@@H](OCCO)[C@H](OC)C2)CC(=O)[C@H](C)/C=C(\C)[C@@H](O)[C@@H](OC)C(=O)[C@H](C)C[C@H](C)/C=C/C=C/C=C/1C [Everolimus (RAD001)] + Cc1nc(Nc2ncc(C(=O)Nc3c(C)cccc3Cl)s2)cc(N2CCN(CCO)CC2)n1 [dasatinib],1.93,1.95,1.06,1.79,1.7,2.43,1.06,1.75,> 10,–,0.231,0.117,> 10,0.489,0.426,0.253,0.396,0.353,0.645,0.225,0.416,–
< 0.003,< 0.003,CO[C@H]1C[C@@H]2CC[C@@H](C)[C@@](O)(O2)C(=O)C(=O)N2CCCC[C@H]2C(=O)O[C@H]([C@H](C)C[C@@H]2CC[C@@H](O)[C@H](OC)C2)CC(=O)[C@H](C)/C=C(\C)[C@@H](O)[C@@H](OC)C(=O)[C@H](C)C[C@H](C)/C=C/C=C/C=C/1C [Rapamycin (Sirolimus)] + Cc1nc(Nc2ncc(C(=O)Nc3c(C)cccc3Cl)s2)cc(N2CCN(CCO)CC2)n1 [dasatinib],1.68,1.76,0.989,1.15,1.11,2.01,1.03,1.59,< 0.003,–,< 0.003,< 0.003,1.05,0.451,0.445,0.26,0.277,0.256,0.52,0.247,0.389,–
< 0.003,0.00436,CO[C@H]1C[C@H]2CC[C@@H](C)[C@@](O)(O2)C(=O)C(=O)N2CCCC[C@H]2C(=O)O[C@H]([C@H](C)C[C@@H]2CC[C@H](OP(C)(C)=O)[C@H](OC)C2)CC(=O)[C@H](C)/C=C(\C)[C@@H](O)[C@@H](OC)C(=O)[C@H](C)C[C@H](C)/C=C/C=C/C=C/1C (stereo in doubt) [Deforolimus (Ridaforolimus)] + Cc1nc(Nc2ncc(C(=O)Nc3c(C)cccc3Cl)s2)cc(N2CCN(CCO)CC2)n1 [dasatinib],1.67,1.98,1.11,1.39,1.38,1.95,1.18,1.71,0.0256,–,0.0286,0.0168,–,0.407,0.4,0.287,0.257,0.295,0.493,0.263,0.397,–

# The next lines start with the compound.
Structure (SMILES),GI50 of drug (786-O [11]) [µM],GI50 of drug (ACHN [15]) [µM],AUC of dose-response viability curve (SN12C [1]),AUC of dose-response viability curve (TK-10 [2]),AUC of dose-response viability curve (786-O [3]),AUC of dose-response viability curve (UO-31 [4]),AUC of dose-response viability curve (CAKI-1 [5]),AUC of dose-response viability curve (A498 [6]),AUC of dose-response viability curve (ACHN [7]),AUC of dose-response viability curve (769-P [8]),GI50 of drug (SN12C [9]) [µM],GI50 of drug (TK-10 [10]) [µM],GI50 of drug (UO-31 [12]) [µM],GI50 of drug (CAKI-1 [13]) [µM],GI50 of drug (A498 [14]) [µM],minimum viability across doses (SN12C [16]),minimum viability across doses (TK-10 [17]),minimum viability across doses (786-O [18]),minimum viability across doses (UO-31 [19]),minimum viability across doses (CAKI-1 [20]),minimum viability across doses (A498 [21]),minimum viability across doses (ACHN [22]),minimum viability across doses (769-P [23]),GI50 of drug (769-P [24]) [µM]
C=CC(=O)Nc1cccc(Oc2nc(Nc3ccc(N4CCN(C)CC4)cc3OC)ncc2Cl)c1 [WZ4002] + Cc1nc(Nc2ncc(C(=O)Nc3c(C)cccc3Cl)s2)cc(N2CCN(CCO)CC2)n1 [dasatinib],2.49,0.0748,2.29,1.97,2.22,2.67,1.87,3.2,1.37,2.02,2.42,0.617,1.34,1.18,9.59,0.0353,0.0404,0.405,0.0152,0.145,0.459,0.0147,0.2,–
CO[C@H]1CC2CC[C@@H](C)[C@@](O)(O2)C(=O)C(=O)N2CCCC[C@H]2C(=O)O[C@H]([C@H](C)C[C@@H]2CCC(OC(=O)C(C)(CO)CO)[C@H](OC)C2)CC(=O)[C@H](C)/C=C(\C)[C@@H](O)[C@@H](OC)C(=O)[C@H](C)C[C@H](C)/C=C/C=C/C=C/1C (stereo in doubt) [Temsirolimus (Torisel)] + Cc1nc(Nc2ncc(C(=O)Nc3c(C)cccc3Cl)s2)cc(N2CCN(CCO)CC2)n1 [dasatinib],< 0.003,0.00325,1.75,1.97,1.2,1.59,1.42,1.99,1.27,1.7,–,0.512,0.0699,0.0242,> 10,0.446,0.393,0.304,0.226,0.273,0.505,0.296,0.402,–
Cc1cnc(NC(=O)Nc2cc(Br)c(C)cc2OC[C@@H]2CNCCO2)cn1 + Cc1nc(Nc2ncc(C(=O)Nc3c(C)cccc3Cl)s2)cc(N2CCN(CCO)CC2)n1 [dasatinib],0.172,0.0369,2.27,2.01,1.43,3.07,1.71,2.99,1.21,1.71,2.09,0.559,0.833,0.388,2.12,0.113,0.162,0.00234,0.00521,0.0829,0.0633,0.0412,0.0737,–
CCS(=O)(=O)N1CC(CC#N)(n2cc(-c3ncnc4[nH]ccc34)cn2)C1 + Cc1nc(Nc2ncc(C(=O)Nc3c(C)cccc3Cl)s2)cc(N2CCN(CCO)CC2)n1 [dasatinib],6.65,–,2.51,2.61,2.58,4.24,2.4,4.02,1.78,2.46,> 10,> 10,> 10,8.06,> 10,0.692,0.689,0.399,0.917,0.47,1.07,0.44,0.625,> 10

# Reference: the supplement of paper PMC8149375
